This note sets out measurements from paper PMC6934184, “Selective DNA-PKcs inhibition extends the therapeutic index of localized radiotherapy and chemotherapy” (The Journal of Clinical Investigation, 2019).

SMILES strings stand for the structures.

This assay has as its target T1, WEE1 (Homo sapiens, UniProt P30291).
T1 construct: purchased Thermo Fisher Scientific (Life Technologies) SelectScreen
As to the kind of experiment: SelectScreen LanthaScreen. It counts as binding. The note with it: read-out: % displacement. The procedure, abridged:
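SelectScreen broad panel; activity (Z'LYTE, Adapta) plus binding formats. ATP: Km app for CSF1R Z'LYTE; 10 for CAMK1 Adapta. Readout = % per kinase.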
In general terms: In TR-FRET formats the signal depends on donor and acceptor labels being close together.

T1 sequence (P30291 whole entry): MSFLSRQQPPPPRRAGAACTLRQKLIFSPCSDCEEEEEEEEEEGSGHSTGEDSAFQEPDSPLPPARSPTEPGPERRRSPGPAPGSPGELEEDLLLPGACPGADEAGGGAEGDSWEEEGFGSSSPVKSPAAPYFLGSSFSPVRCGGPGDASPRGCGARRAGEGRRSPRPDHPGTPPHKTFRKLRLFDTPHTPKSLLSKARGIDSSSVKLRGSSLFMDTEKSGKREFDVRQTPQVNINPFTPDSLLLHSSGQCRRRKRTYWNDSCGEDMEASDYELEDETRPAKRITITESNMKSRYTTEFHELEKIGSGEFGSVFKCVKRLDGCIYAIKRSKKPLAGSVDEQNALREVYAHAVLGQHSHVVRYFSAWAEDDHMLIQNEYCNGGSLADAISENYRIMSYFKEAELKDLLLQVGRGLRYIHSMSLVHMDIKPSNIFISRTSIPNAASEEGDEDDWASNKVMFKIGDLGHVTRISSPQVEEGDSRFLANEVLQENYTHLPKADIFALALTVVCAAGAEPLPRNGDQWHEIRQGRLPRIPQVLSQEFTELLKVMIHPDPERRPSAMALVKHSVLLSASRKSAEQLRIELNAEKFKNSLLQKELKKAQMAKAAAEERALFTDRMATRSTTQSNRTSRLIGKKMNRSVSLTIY

Consider `CN(C(=O)CN1CCOCC1)c1ccc2sc3c(-c4cccc5c(=O)cc(N6CC7CCC(C6)O7)oc45)cccc3c2c1` [NU5455], for which the inhibition at 1 µM worked out at 18.2%.
